Laboratory results as given in the NIST ThermoML archive (doi:10.1016/j.fluid.2008.01.007).
Numbers after ± are expanded uncertainties.

Conditions: 101.33 kPa, Liquid

Molecule `Cc1cccc(C)c1` [1,3-dimethylbenzene] has a mass density (293.15 K) of 868.124 ± 0.65 kg/m3.
Work on `CCCCn1cc[n+](C)c1.F[P-](F)(F)(F)(F)F` [1-butyl-3-methylimidazolium hexafluorophosphate] yielded a mass density (293.15 K, Vibrating tube method) of 1380.33 ± 13 kg/m3.
Molecule `c1ccccc1` [benzene] has a mass density (298.15 K) of 873.945 ± 0.64 kg/m3.
Molecule `CCCCCCCCC` [nonane] has a mass density (293.15 K) of 718.418 ± 0.96 kg/m3.
In the case of `Cc1ccccc1` [toluene], the mass density (298.15 K) is reported as 864.989 ± 0.18 kg/m3.
Molecule `CCCCCCCCCCC` [undecane] has a mass density (298.15 K) of 740.289 ± 0.92 kg/m3.
